The text below walks through data of patent publication US20160243015A1, “SKIN LIGHTENING COMPOSITION” (Conopco, Inc., d/b/a UNILEVER, priority 2013, published 2016).

Where only a bound is given, the exact number is not on record here.

Assay [1] concerns the target T1, human tyrosinase enzyme (Homo sapiens, UniProt P14679).
T1 construct: Human neonatal darkly pigmented melanocytes lysate was used as a source of tyrosinase enzyme; host or cells: human neonatal darkly pigmented melanocytes (crude NP-40 lysate supernatant)
T1 sequence (P14679 19-529): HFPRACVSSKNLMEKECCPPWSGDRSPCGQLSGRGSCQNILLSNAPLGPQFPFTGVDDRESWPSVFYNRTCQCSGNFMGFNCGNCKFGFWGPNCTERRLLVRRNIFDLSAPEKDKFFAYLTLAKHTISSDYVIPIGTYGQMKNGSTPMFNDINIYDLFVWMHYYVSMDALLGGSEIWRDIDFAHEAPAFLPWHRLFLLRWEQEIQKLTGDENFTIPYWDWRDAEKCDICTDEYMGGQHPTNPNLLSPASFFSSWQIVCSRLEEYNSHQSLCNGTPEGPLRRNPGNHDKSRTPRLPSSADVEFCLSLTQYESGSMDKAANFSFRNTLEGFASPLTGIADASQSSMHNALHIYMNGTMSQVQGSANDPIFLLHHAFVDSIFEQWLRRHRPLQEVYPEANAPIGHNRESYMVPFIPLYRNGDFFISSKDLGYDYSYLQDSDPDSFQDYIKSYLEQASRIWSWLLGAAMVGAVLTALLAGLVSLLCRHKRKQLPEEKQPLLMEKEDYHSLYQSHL
Briefly: Tyrosinase inhibition assay (melanocyte lysate, L-DOPA/MBTH). Format: biochemical.
Method: Human neonatal darkly pigmented melanocytes lysate was used as a source of tyrosinase enzyme. The human melanocyte cells were purchased from Cascade Biologics (Code: C-202-5C) and cultured using standard methods. A confluent 25 cm^2 flask of melanocytes was washed with 2 ml of ice-cold PBS (phosphate buffered saline), followed by incubation with 1 ml of (0.025% w/v) Trypsin (0.01% w/v) EDTA (ethylenediamine tetraacetic acid) solution for 2 minutes at 37° C. to release the adherent cells. Trypsin was neutralized by the addition of 3 ml ‘neutralizer’ solution (sterile PBS solution containing 0.5% w/vnewborn bovine serum). […] The protein content in the lysate was measured by the Bradford reagent method (bovine serum albumin standard). […]
The solution phase tyrosinase activity assay was initiated by mixing 50 μl of 50 mM potassium phosphate buffer (pH 6.8), 60 μl of 10 mM MBTH (3-Methyl-2-benzothiazolinonhydrazon hydrochloride hydrate) in 10 mM potassium phosphate buffer, 30 μl of 10 mM L-DOPA (L-3,4-dihydroxyphenylalanine) in 10 mM potassium phosphate buffer, 4 μl of melanocytic cell extract (about 2 μg/μl protein), and 6 μl of distilled water (to make up the volume to 150 μl), and incubated for about 1 hour at 37° C. […] Then 200 μl of the supernatant was transferred to a 96-well flat-bottom plate, and the OD (optical density) read in a TECAN plate-reader (540 nm transmission). […]

Assay [2] deals with Melanoderm cultures (human keratinocytes and melanocytes), melanin production. Briefly: Assay of pigment production by Living Skin Equivalents (Melanoderm). The note with it: 14 days, melanin normalized to protein levels; for % inhibition of melanin production compared to vehicle control: 10 μM; for inhibition: Homo sapiens, 336 h, read-out: % inhibition of melanin production compared to vehicle control. Set-up: inhibition: dose or concentration left out as unconfirmed. Type of assay: cell-based. From the text: Assay of pigment production by Living Skin Equivalents (Melanoderms™)
So called reconstructed pigmented ‘skin’ cultures containing keratinocytes and melanocytes are commercially available and, for example, can be purchased from MatTek Corp, 200, Homer Avenue, Ashland, Mass., USA, under the trade name Melanoderm™. Melanoderms™ (catalogue reference MEL-300) containing melanocytes from […] donor skin were maintained in EPI-100-NMM113 media following the manufacturer's instructions and using standard methods for the maintenance of cultured mammalian cells under aseptic conditions. The Melanoderm™ cultures were treated with test agents for a total of 14 days. During the 14 day culture period the melanocytes in the Melanoderm™ cultures synthesise melanin in specialised vesicular structures called melanosomes. The pigmented melanosomes are transferred to the adjacent keratinocytes and the transferred-melanosomes tend to accumulate over the nucleus of the keratinocytes. This process is the same as occurs in skin in vivo and accordingly the Melanoderm™ culture is considered to be a very good test ‘skin tissue’ to mimic the effect of the skin pigmentation process in vivo. A compound that leads to a reduction in melanin production in the Melanoderm™ culture over 14 days by 10% or more is considered to have a positive pigment reducing effect. It is important that the reduction in pigment occurs without substantive loss of cell viability such that the inhibitory effect of the test compound is due to its biological function rather than due to cell toxicity.
Culture media changes and re-dosing of compounds at selected concentrations took place every 2 or 3 days during the test period. Melanoderm™ cultures were also treated with control materials including the vehicle (dimethylsulphoxide (DMSO)) used to dissolve the test material and a positive control material known to lead to the synthesis of reduced amounts of melanin in the cultures. 4-ethylresorcinol was used as a positive control. After 14 days culture, transmitted-light microscopy images were captured for every culture using a Leica DM IL microscope at ×20 magnification.
The cell viability of the cultures was assessed using the so called WST-1 (Water Soluble Tetrazolium Salt-1) assay purchased from Roche Applied Science and following the manufacturer's instructions. The stable tetrazolium salt WST-1 is cleaved to a soluble formazan dye by a complex cellular mechanism that occurs primarily at the cell surface. This bioreduction is largely dependent on the glycolytic production of NADPH in viable cells. Therefore, the amount of soluble formazan dye formed in the culture medium directly correlates to the number of metabolically active cells in the culture. Cultures were incubated with WST-1 in the medium for 1 hour and production of formazan measured at 450 nm using a spectrophotometer plate reader, e.g. a BMG Labtech FLUOstar plate reader. Cultures were considered ‘viable’ if they generated greater than 80% of the control value of formazan product. Subsequently the culture was washed briefly in phosphate buffer solution (PBS) and total melanin and protein extracted together from each culture using 250 μl Solvable™ (Perkin Elmer product 6NE9100) reagent at 60° C. overnight as recommended by the manufacturer. The total protein content using a sample of the extracts was determined using the so called BCA (bicinchoninic acid) assay. The BCA assay may be purchased from Pierce Chemical Company and conducted following the manufacturer's instructions. Melanin was determined by measuring the absorbance at 485 nm, for example using a BMG Labtech FLUOstar plate reader. The amount of melanin extracted from each culture was determined by reference to a standard synthetic-melanin curve (Sigma Aldrich Chemical Company catalogue reference M8631). […]

As a reminder, the inhibition is the percentage by which the read-out fell short of the control. For the molecule `CCc1ccc(O)cc1O` [4-ethyl resorcinol], testing at 10 µM in assay [1] gave an inhibition of 29%. In the case of `O=C(COc1ccccc1)NC(=S)Nc1ccc(I)cn1` [NC-0475, N-[[(5-iodo-2-pyridinyl)-amino]-thioxomethyl]-2-phenoxyacetamide], in assay [2], the “% inhibition of melanin production compared to vehicle control” value (“% inhibition of melanin production” for short) was found to be 53% and the inhibition is above 50%. As for `O=C(COc1ccccc1)NC(=S)Nc1ccc(Cl)cn1` [S12, N-[[(5-chloro-2-pyridinyl)-amino]-thioxomethyl]-2-phenoxyacetamide], in assay [2], the “% inhibition of melanin production” value is on record as 47% and the inhibition was 40 to 50%. In the case of `Cc1ccc(OCC(=O)NC(=S)Nc2ccc(Cl)cn2)cc1` [S13, N-[[(5-chloro-2-pyridinyl)-amino]-thioxomethyl]-2-(4-methylphenoxy)-acetamide], in assay [2], the “% inhibition of melanin production” value is 35% and the inhibition is 30 to 40%. `O=C(COc1ccccc1)NC(=S)Nc1ccccn1` [S14, N-[[2-pyridinylamino]-thioxomethyl]-2-phenoxyacetamide]: the inhibition in assay [2] was found to be 10%. Consider `Cc1cc(OCC(=O)NC(=S)Nc2ccc(I)cn2)cc(C)c1Cl` [S15, N-[[(5-iodo-2-pyridinyl)-amino]-thioxomethyl]-2-(4-chloro-3,5-dimethylphenoxy)-acetamide], for which, in assay [2], the “% inhibition of melanin production” value is listed as 43% and the inhibition was in the range of 40 to 50%. In the case of `CC(C)c1ccc(OCC(=O)NC(=S)Nc2ccc(Cl)cn2)cc1` [S16, N-[[(5-chloro-2-pyridinyl)-amino]-thioxomethyl]-2-[4-(1-methylethyl)-phenoxy]-acetamide], in assay [2], the “% inhibition of melanin production” value amounted to 38% and the inhibition fell in the range of 30 to 40%. On the same counts, the results for `O=C(COc1ccc(Cl)cc1Cl)NC(=S)Nc1ccc(I)cn1` [S17, N-[[(5-iodo-2-pyridinyl)-amino]-thioxomethyl]-2-(2,4-dichlorophenoxy)-acetamide] are 43% and 40 to 50%. As for `O=C(COc1ccc(Cl)cc1)NC(=S)Nc1ccc(I)cn1` [S18, N-[[(5-iodo-2-pyridinyl)-amino]-thioxomethyl]-2-(4-chlorophenoxy)-acetamide], in assay [2], the “% inhibition of melanin production” value is recorded as 28% and the inhibition is 20 to 30%. On to `CC(C)(C)c1ccc(OCC(=O)NC(=S)Nc2ccc(I)cn2)cc1` [S19, N-[[(5-iodo-2-pyridinyl)-amino]-thioxomethyl]-2-[4-(1,1-dimethylethyl)phenoxy]-acetamide], for which, in assay [2], the “% inhibition of melanin production” value is 22% and the inhibition was in the range of 20 to 30%. For `Cc1cccc(OCC(=O)NC(=S)Nc2ccc(I)cn2)c1` [S20, N-[[(5-iodo-2-pyridinyl)-amino]-thioxomethyl]-2-(3-methylphenoxy)-acetamide] the same measures were 22% and 20 to 30%.

Take `Cc1nc(NC(=S)NC(=O)COc2ccccc2)ccc1I` [S21, N-[[(5-iodo-6-methyl-2-pyridiny)lamino]-thioxomethyl]-2-phenoxyacetamide]: in assay [2], the “% inhibition of melanin production” value is recorded as 39% and the inhibition lay in the range of 30 to 40%.
